Test results: ChEMBL document CHEMBL3244333, “2-Acetylpyridine thiosemicarbazones. 2. N4,N4-Disubstituted derivatives as potential antimalarial agents” (J Med Chem, 1979)
The source made the active and inactive calls. No cut-off for these calls is given here.

Legend:
Mus musculus [1] = test: Toxicity in Plasmodium berghei KBG 173 infected mouse at 640 mg/kg; type: organism-based; parameters: dose 640 mg/kg; settings: in vivo
Plasmodium berghei [2] = test: Antimalarial activity against Plasmodium berghei KBG 173 infected in mouse assessed as cured animal from parasite infection at 160 mg/kg; type: functional, organism-based; parameters: dose 160 mg/kg
Plasmodium berghei [3] = test: Antimalarial activity against Plasmodium berghei KBG 173 infected in mouse assessed as increase of mean survival time at 640 mg/kg; type: functional
Mus musculus [4] = test: Toxicity in Plasmodium berghei KBG 173 infected mouse at 160 mg/kg; type: organism-based; parameters: dose 160 mg/kg; settings: in vivo
Mus musculus [5] = test: Toxicity in Plasmodium berghei KBG 173 infected mouse at 40 mg/kg; type: organism-based; parameters: dose 40 mg/kg; settings: in vivo
Plasmodium berghei [6] = test: Antimalarial activity against Plasmodium berghei KBG 173 infected in mouse assessed as increase of mean survival time at 40 mg/kg; type: functional
Plasmodium berghei [7] = test: Antimalarial activity against Plasmodium berghei KBG 173 infected in mouse assessed as increase of mean survival time at 160 mg/kg; type: functional
Plasmodium berghei [8] = test: Antimalarial activity against Plasmodium berghei KBG 173 infected in mouse assessed as cured animal from parasite infection at 40 mg/kg; type: functional, organism-based; parameters: dose 40 mg/kg
Plasmodium berghei [9] = test: Antimalarial activity against Plasmodium berghei KBG 173 infected in mouse assessed as cured animal from parasite infection at 640 mg/kg; type: functional, organism-based; parameters: dose 640 mg/kg
Plasmodium berghei [10] = test: Antimalarial activity against Plasmodium berghei KBG 173 infected in mouse assessed as cured animal from parasite infection at 320 mg/kg; type: functional, organism-based; parameters: dose 320 mg/kg
Plasmodium berghei [11] = test: Antimalarial activity against Plasmodium berghei KBG 173 infected in mouse assessed as cured animal from parasite infection at 80 mg/kg; type: functional, organism-based; parameters: dose 80 mg/kg
Mus musculus [12] = test: Toxicity in Plasmodium berghei KBG 173 infected mouse at 320 mg/kg; type: organism-based; parameters: dose 320 mg/kg; settings: in vivo

SMILES | Activity (Mus musculus [1]) | Activity (Plasmodium berghei [2]) | Survival (Plasmodium berghei [3]) [days] | Activity (Mus musculus [4]) | Activity (Mus musculus [5]) | Survival (Plasmodium berghei [6]) [days] | Survival (Plasmodium berghei [7]) [days] | Activity (Plasmodium berghei [8]) | Activity (Plasmodium berghei [9]) | Activity (Plasmodium berghei [10]) | Activity (Plasmodium berghei [11]) | Activity (Mus musculus [12])
C/C(=N/NC(=S)N1CCC(O)CC1)c1ccccn1 | Toxic | Active | 0.6 | Toxic | Toxic | -0.1 | 0 |  |  |  |  | 
C/C(=N/NC(=S)N1CC(C)OC(C)C1)c1ccccn1 (stereo not drawn) | Toxic | Active | 0 | Toxic | Toxic |  | 0 | Active | Active |  |  | 
C/C(=N/NC(=S)N1CCN(c2ccccn2)CC1)c1ccccn1.Cl | Toxic |  | 0 |  |  | 3.2 |  |  |  |  |  | 
C/C(=N/NC(=S)N1CCN(C)CC1)c1ccccn1 | Toxic | Active | 0 | Toxic | Toxic | 0 | 0 | Active |  |  |  | 
C/C(=N/NC(=S)N(C)CCc1ccccc1)c1ccccn1 |  | Active |  |  |  | 0.4 | 7.2 |  | Active |  |  | 
CCCN(CCC)C(=S)N/N=C(/C)c1ccccn1 |  | Active | 3 | Toxic | Toxic | 0 | 0 | Active |  |  |  | 
C/C(=N/NC(=S)N1CCCN(C)CC1)c1ccccn1 | Toxic |  | 0 | Toxic | Toxic | 0.8 | 0.8 |  |  |  |  | 
C/C(=N/NC(=S)N1CC=CCC1)c1ccccn1 | Toxic |  | 7.4 | Toxic |  | 4 | 1.4 |  |  |  |  | 
C/C(=N/NC(=S)N(CC(C)C)CC(C)C)c1ccccn1 | Toxic |  | 0.5 | Toxic |  | -0.2 | 0.8 |  |  |  |  | 
C/C(=N/NC(=S)N1CCC1)c1ccccn1 | Toxic | Active | 0 | Toxic |  | 1.7 | 0 |  | Active |  |  | 
C/C(=N/NC(=S)N1CCCCCCCCCCCC1)c1ccccn1 |  |  | 2.9 |  |  | 0 | 0.1 |  |  |  |  | 
C/C(=N/NC(=S)N(Cc1ccccc1)Cc1ccccc1)c1ccccn1 | Toxic |  | -0.2 | Toxic |  | -0.1 | 1.6 |  |  |  |  | 
C/C(=N/NC(=S)N1CCCCCCCC1)c1ccccn1 |  |  | 9 |  |  | -0.3 | 1.7 |  | Active |  |  | 
C/C(=N/NC(=S)N(C)CC(O)C(O)C(O)C(O)CO)c1ccccn1 (stereo not drawn) | Toxic |  | 0.3 |  |  | 0.2 | 1.4 |  |  |  |  | 
C/C(=N/NC(=S)N1CCCC(C)C1)c1ccccn1 (stereo not drawn) | Toxic | Active | 0 | Toxic |  | 4.1 |  |  | Active |  |  | 
C/C(=N/NC(=S)N1CCc2ccccc21)c1ccccn1 | Toxic |  | 0.3 | Toxic |  | 0.5 | 0.3 |  |  |  |  | 

SMILES | Activity (Mus musculus [1]) | Activity (Plasmodium berghei [2]) | Survival (Plasmodium berghei [3]) [days] | Activity (Mus musculus [4]) | Activity (Mus musculus [5]) | Survival (Plasmodium berghei [6]) [days] | Survival (Plasmodium berghei [7]) [days] | Activity (Plasmodium berghei [8]) | Activity (Plasmodium berghei [9]) | Activity (Plasmodium berghei [10]) | Activity (Plasmodium berghei [11]) | Activity (Mus musculus [12])
C/C(=N/NC(=S)N(C)C1CCCCC1)c1ccccn1 | Toxic | Active | -0.3 | Toxic |  | 3.7 |  |  |  |  |  | 
C/C(=N/NC(=S)N1CCC(C)CC1)c1ccccn1 | Toxic | Active | 0 | Toxic |  |  | 0 | Active | Active |  |  | 
C/C(=N/NC(=S)N1CCCCCC1)c1ccccn1 | Toxic | Active |  | Toxic |  | 6.2 |  | Active | Active | Active | Active | Toxic
C/C(=N/NC(=S)N(C)C)c1ccccn1 | Toxic | Active | 0 | Toxic | Toxic | 0.5 | 0 |  | Active |  |  | 
C/C(=N/NC(=S)N1CCc2ccccc2C1)c1ccccn1 |  | Active |  |  |  | 3.5 | 7.7 |  | Active |  |  | 
C/C(=N/NC(=S)N1CCC(c2ccccc2)CC1)c1ccccn1 |  | Active |  |  |  | 0.4 |  |  | Active | Active | Active | 
C/C(=N/NC(=S)N1CCN(c2ccc(F)cc2)CC1)c1ccccn1 |  | Active | 9 |  |  |  |  | Active | Active |  |  | 
C/C(=N/NC(=S)N1CCC2(CC1)OCCO2)c1ccccn1 | Toxic | Active | 0 | Toxic | Toxic | 0 | 0 | Active |  |  |  | 
C/C(=N/NC(=S)N1CCN(c2ccccn2)CC1)c1ccccn1 |  | Active |  |  |  |  |  | Active | Active | Active | Active | 
C/C(=N/NC(=S)N1CCCCC1C)c1ccccn1 (stereo not drawn) | Toxic | Active | 0 | Toxic |  |  | 0 | Active | Active |  |  | 
C/C(=N/NC(=S)N1CCCC1)c1ccccn1 | Toxic | Active | 0 | Toxic | Toxic | 8.9 | 0 | Active | Active |  |  | 
C/C(=N/NC(=S)N1CCCCC1)c1ccccn1 |  |  | 0 |  |  | -0.4 | -0.4 |  |  |  |  | 
CCC1CCCCN1C(=S)N/N=C(/C)c1ccccn1 (stereo not drawn) | Toxic | Active | -0.2 |  |  | 5.6 |  |  |  |  |  | 
C/C(=N/NC(=S)N1CCCCCCC1)c1ccccn1 |  | Active |  |  |  | 0.6 |  |  | Active | Active | Active | 
CCOC(=O)N1CCN(C(=S)N/N=C(/C)c2ccccn2)CC1 | Toxic | Active | 0 | Toxic | Toxic |  | 0 | Active | Active |  |  | 
